# How the values were obtained:
# Assay in all cases: In vitro susceptibility, broth microdilution (MIC)
# [1] = test system: S. typhimurium (ATCC BAA-185); format: cell-based; details: Salmonella enterica, read-out: Antimicrobial activity (MIC) S. typhimurium
# Method in brief: (§1)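 MIC determined by CLSI 2-fold broth microdilution in cation-adjusted Mueller–Hinton broth at ~2.5×10^5 CFU/ml, final compound 0.031–64 μg/ml, 18–24 h at 37 °C. MIC is the lowest concentration giving complete growth inhibition by background-corrected OD600 versus compound-free wells; duplicate or triplicate wells, replicated at least twice.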
# P. aeruginosa (PA01) = format: cell-based; details: Pseudomonas aeruginosa, read-out: Antimicrobial activity (MIC) P. aeruginosa
# Method in brief: as §1
# [2] = test system: A. baumannii (ATCC 19606); format: cell-based; details: Acinetobacter baumannii, ATCC19606; A. baumannii ATCC 19606 (values without asterisk); read-out: Antimicrobial activity (MIC) A. baumannii
# Method in brief: as §1
# S. aureus (ATCC29213) = format: cell-based; details: Staphylococcus aureus; S. aureus ATCC29213; 18-24 h, 37 C; read-out: Antimicrobial activity (MIC) S. aureus ATCC29213
# Method in brief: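 CLSI 2-fold serial broth microdilution; K. pneumoniae C238 grown in L-broth, S. aureus ATCC 29213 in Mueller Hinton broth, plates incubated 18–24 h at 37 °C. MIC taken as lowest concentration giving complete growth inhibition by OD600 versus compound-free wells, background-subtracted.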
# VRE#2 (2010A) = format: cell-based, vancomycin resistant Enterococci; details: VRE#2 (2010A); read-out: Antimicrobial activity (MIC) VRE#2
# Method in brief: as §1
# MRSA (ATCC BAA-1762) = format: cell-based, methicillin resistant S. aureus; details: Staphylococcus aureus; MRSA ATCC BAA-1762; read-out: Antimicrobial activity (MIC) MRSA ATCC BAA1762
# Method in brief: as §1
Structure (SMILES),MIC [1] [µg/mL],MIC (P. aeruginosa (PA01)) [µg/mL],MIC [2] [µg/mL],MIC (S. aureus (ATCC29213)) [µg/mL],MIC (VRE#2 (2010A)) [µg/mL],MIC (MRSA (ATCC BAA-1762)) [µg/mL]
"C[N+](C)(C)CCON=C(c1c(-c2cc3cc(Cl)ccc3[nH]2)[nH]c2cc(Br)ccc12)C(F)(F)F (racemic) [Compound 221, 2-(((1-(6-Bromo-5′-chloro-1H,1′H-[2,2′-biindol]-3-yl)-2,2,2-trifluoroethylidene)amino)oxy)-N,N,N-trimethylethan-1-aminium Iodide]",64,32,32,1,2,2
"CN(C)CCOC(=O)c1c(/C=C/c2ccc(Cl)cc2)[nH]c2cc(Br)ccc12 [Compound 60, (E)-2-(Dimethylamino)ethyl 6-bromo-2-(4-chlorostyryl)-1H-indole-3-carboxylate]",–,–,> 64,4,–,–
"NCCOc1cc2[nH]c(-c3cc4ccc(Br)cc4[nH]3)cc2cc1Cl [Compound 201, 2-((6′-Bromo-5-chloro-1H,1′H-[2,2′-biindol]-6-yl)oxy)ethan-1-amine]",16,16,16,4,4,4
"NCCNC(=O)c1c(-c2cc3cc(Cl)ccc3[nH]2)[nH]c2cc(Br)ccc12 [Compound 206, N-(2-Aminoethyl)-6-bromo-5′-chloro-1H,1′H-[2,2′-biindole]-3-carboxamide]",64,32,16,8,4,8
